Data published in PMC5430407 (ACS Medicinal Chemistry Letters, 2017).

Key:
CT26 tumor = CT26 tumor growth in immune-compromised mice; type: in vivo, mouse; details: immune-compromised mice (nu/nu)
[1] = tested on: CEREP panel of over 50 receptors and enzymes; test: CEREP panel
plasma kynurenine = test: PK/PD study in mice, plasma kynurenine; type: in vivo, mouse; details: wild-type mice, once daily oral dosing at 50 mg/kg
[2] = Allometric scaling, predicted human dose; details: allometric scaling to cover the WB IC50 at trough
[3] = 28-day IND toxicology study in mice; type: in vivo, mouse
[4] = 28-day IND toxicology study in dogs; type: in vivo, dog
Caco-2 cells = test: Caco-2 permeability; type: in vitro ADME; details: A-B, 50 µM, 120 min
IDO1 in HeLa cells = IDO1 in HeLa cells (Homo sapiens, UniProt P14902); test: HeLa cell-based IDO1/kynurenine assay; details: calculated using HeLa pIC50; for LLE (lipophilic ligand efficiency): LLE = pIC50 – cLogP
IDO1 in HeLa cells, sequence (P14902 whole entry): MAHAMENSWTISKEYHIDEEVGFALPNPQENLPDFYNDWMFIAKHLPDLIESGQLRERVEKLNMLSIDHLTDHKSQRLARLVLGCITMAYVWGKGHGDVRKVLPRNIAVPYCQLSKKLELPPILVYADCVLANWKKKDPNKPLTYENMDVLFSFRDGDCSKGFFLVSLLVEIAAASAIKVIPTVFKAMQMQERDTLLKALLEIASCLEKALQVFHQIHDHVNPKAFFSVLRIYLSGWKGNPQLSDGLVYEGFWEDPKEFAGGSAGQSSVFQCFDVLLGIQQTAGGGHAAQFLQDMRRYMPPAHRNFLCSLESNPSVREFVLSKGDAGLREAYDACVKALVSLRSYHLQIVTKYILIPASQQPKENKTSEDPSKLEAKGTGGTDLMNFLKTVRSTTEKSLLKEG

Row | Compound | Caco2 Pm (Caco-2 cells) | LE (ligand efficiency) (IDO1 in HeLa cells) | other results
1 | NS(=O)(=O)NCCNc1nonc1C(=NO)Nc1ccc(F)c(Br)c1 [Compound 4f, epacadostat] |  |  | tumor growth inhibition, treated vs control animals (CT26 tumor): no difference; in vitro toxicology result, CEREP panel [1]: clean; plasma kynurenine level reached (basal level of IDO null mice) (plasma kynurenine): ~400 nM; predicted oral dosing in humans [2]: 50 mg twice-a-day; tolerability [3]: well-tolerated; tolerability [4]: well-tolerated
2 | CC(=O)NCCNc1nonc1/C(=N/O)Nc1ccc(F)c(Br)c1 [Compound 4d] | 19 × (10)^−6 cm/s | 0.45 | 
3 | OCCNc1nonc1/C(=N/O)Nc1ccc(F)c(Br)c1 [Compound 4b] | 31 × (10)^−6 cm/s | 0.51 | LLE (lipophilic ligand efficiency) (IDO1 in HeLa cells): 5.8
4 | NCCNc1nonc1/C(=N/O)Nc1ccc(F)c(Br)c1 [Compound 4c] | 1.8 × (10)^−6 cm/s | 0.47 | 
5 | COCCNc1nonc1/C(=N/O)Nc1ccc(F)c(Br)c1 [Compound 4a] | 44 × (10)^−6 cm/s | 0.45 | 
6 | NS(=O)(=O)NCCNc1nonc1C(=NO)Nc1ccc(F)c(Cl)c1 [Compound 4g] | 4.3 × (10)^−6 cm/s |  | 
7 | CS(=O)(=O)NCCNc1nonc1C(=NO)Nc1ccc(F)c(Br)c1 [Compound 4e] |  |  | LLE (lipophilic ligand efficiency) (IDO1 in HeLa cells): 5.8
